Measurements reported in PMC6429202, “Drug-1,3,4-Thiadiazole Conjugates as Novel Mixed-Type Inhibitors of Acetylcholinesterase: Synthesis, Molecular Docking, Pharmacokinetics, and ADMET Evaluation” (Molecules, 2019).
Where two headings read alike, the source gives them in different places.

Experiments:
[1] = molecular target: T1, AChE from human erythrocytes (Homo sapiens, UniProt P22303); test: Acetylcholinesterase inhibition assay (Ellman method); assay type: biochemical
T1 construct: AChE from human erythrocytes; from tissue; host or cells: human erythrocytes
T1 sequence (P22303 other isoform, or with tags, fused parts or gaps): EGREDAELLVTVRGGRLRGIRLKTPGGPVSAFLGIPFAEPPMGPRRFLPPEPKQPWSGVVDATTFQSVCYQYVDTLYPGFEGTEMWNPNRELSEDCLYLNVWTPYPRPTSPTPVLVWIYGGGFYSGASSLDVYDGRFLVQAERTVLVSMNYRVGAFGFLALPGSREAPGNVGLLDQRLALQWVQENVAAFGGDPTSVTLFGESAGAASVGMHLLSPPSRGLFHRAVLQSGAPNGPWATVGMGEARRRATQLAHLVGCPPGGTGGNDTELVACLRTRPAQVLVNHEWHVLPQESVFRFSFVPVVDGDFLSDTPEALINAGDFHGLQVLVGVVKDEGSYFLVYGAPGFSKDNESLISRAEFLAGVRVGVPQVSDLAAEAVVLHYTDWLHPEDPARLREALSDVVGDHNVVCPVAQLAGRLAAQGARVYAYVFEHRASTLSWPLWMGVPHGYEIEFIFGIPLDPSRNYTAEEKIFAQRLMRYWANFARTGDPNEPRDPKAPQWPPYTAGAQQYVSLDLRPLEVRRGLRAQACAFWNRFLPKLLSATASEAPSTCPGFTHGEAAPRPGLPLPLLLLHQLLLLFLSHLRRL
Description: The inhibitory activities of the synthesized compounds were analyzed spectrophotometrically using acetylthiocholine iodide as the substrate by following the method of Ellman et al.. In general, the reaction mixture comprised 180 µL of 50 mM of Tris HCl buffer (pH 8.0) with 0.1 M of sodium chloride and 0.02 M of magnesium chloride, to which 20 µL of enzyme (AChE, EC 3.1.1.7, AChE from human erythrocytes) solution was added (50 U in each well). The synthesized compounds (10 µL at the concentration being tested for their impact on growth) were added to the reaction mixture, and the mixtures were pre-incubated for 30 min at 4 °C. Then, 5,5′-dithiobis(2-nitrobenzoic acid) (0.3 mM, 20 µL) and acetylthiocholine iodide (1.8 mM, 20 µL) were added to the assay solution, and the mixtures were incubated at 37 °C for 10 min. After the incubation period, the absorbance of each well was measured at 412 nm. For the non-enzymatic reaction, the assays were carried out with a blank containing all the components except AChE. The assay measurements were collected at […] using a microplate reader (OPTI Max, Tunable, Molecular Devices, Sunnyvale, CA, USA). IC50 values were calculated using GraphPad Prism 5.0 through non-linear regression. Each experiment was performed in triplicate.
The percentage of inhibition of […] was calculated: inhibition (%) = [(Blank−Sample)/Blank] × 100.

[2] = DPPH free radical scavenging assay; settings: tested at 100 µg/mL; compared with vitamin C
Description: The synthesized compounds were further evaluated for their 2,2-diphenyl-1-picrylhydrazyl (DPPH) radical scavenging capacity. To evaluate their DPPH inhibition abilities, a radical scavenging assay was performed. The assay mixtures contained 20 µL of increasing concentrations of the test compounds and 100 µL of DPPH (150 µM), and the total volume of each well was brought up to 200 µL with methanol. Then, the mixture was incubated for 30 min at room temperature. For comparison and assay validity, ascorbic acid (vitamin C) was used as a positive control. The absorbance was recorded at 517 nm using a microplate reader (OPTI Max, Tunable). The results were calculated as percent inhibition. All of the concentrations were evaluated in triplicate.

[3] = molecular target: T1, AChE from human erythrocytes; test: Kinetic study of AChE inhibition (Lineweaver–Burk plots); assay type: biochemical; settings: for Vmax: substrate acetylthiocholine iodide
Description: To determine the inhibition mechanism, a kinetic study was carried out. Compound 3b was selected from the synthesized compounds for kinetic analysis to determine its inhibition potential. The identification of the inhibition mode of compound 3b began by using a series of concentrations of acetylthiocholine iodide (0.00 µM, 0.009 µM, 0.018 µM, and 0.036 µM) with various concentrations of 3b. […] The highest reaction rates were calculated from the initial linear portion of the absorbance plot, which represented the five minutes following the addition of the enzyme, and absorbance data were collected at 30-second intervals. The type of enzyme inhibition was determined from the Lineweaver–Burk plots of the inverse of velocity (1/V) versus the inverse of substrate concentration (1/[S] mM^−1).
The efficiency of 3b in blocking the free enzyme and enzyme–substrate complex was investigated in terms of its enzyme inhibition (EI) and enzyme–substrate inhibition (ESI) constants. […] The plots of the effects of complex 3b were linear and appeared in the second quadrant.

[4] = mean ± SEM, triplicate, substrate acetylthiocholine iodide, read-out: Acetylcholine Esterase (from Human Erythrocytes) IC50 ± SEM

For `Nc1nnc(-c2cn(C3CC3)c3cc(N4CCNCC4)c(F)cc3c2=O)s1` [Compound 3a, 3-(5-amino-1,3,4-thiadiazol-2-yl)-1-cyclopropyl-6-fluoro-7-(piperazin-1-yl)quinolin-4(1H)-one], the IC50 [1] was 126 ± 3.6 nM and the “Free radical scavenging potency (DPPH)” value [2] was “excellent radical scavenging potency”.
With `C[C@@H]1COc2c(N3CCNCC3)c(F)cc3c(=O)c(-c4nnc(N)s4)cn1c23` [Compound 3b, (R)-6-(5-amino-1,3,4-thiadiazol-2-yl)-9-fluoro-3-methyl-10-(piperazin-1-yl)-2H-[1,4]oxazino[2,3,4-ij]quinolin-7(3H)-one] the IC50 [1, 4] was 18.1 ± 0.9 nM, the “Free radical scavenging potency (DPPH)” value [2] was “excellent radical scavenging potency” and the Vmax ([3]; 3b concentration 0.009 µM) was 0.000467 ΔA/Sec. For the same compound, the Vmax ([3]; 3b concentration 0.018 µM) was 0.000343 ΔA/Sec, the Vmax ([3]; 3b concentration 0.036 µM) was 0.000183 ΔA/Sec and the “Mode of inhibition of AChE” value ([3]; Lineweaver–Burk analysis) was “mixed mode of inhibition”. It also gave a Ki ([3]; from plot of slope versus inhibitor concentration, read-out: Ki (EI dissociation constant)) of 3.1 nM.
`C[C@@H]1COc2c(N3CCN(C)CC3)c(F)cc3c(=O)c(-c4nnc(N)s4)cn1c23` [Compound 3c, (R)-6-(5-amino-1,3,4-thiadiazol-2-yl)-9-fluoro-3-methyl-10-(4-methylpiperazin-1-yl)-2H-[1,4]oxazino[2,3,4-ij]quinolin-7(3H)-one] gave an IC50 [1, 4] of 576.3 ± 3.6 nM.
In the case of `CC(C)Cc1ccc(C(C)c2nnc(N)s2)cc1` (stereo not shown) [Compound 3d, 5-(1-(4-isobutylphenyl)ethyl)-1,3,4-thiadiazol-2-amine], the IC50 [1, 4] is reported as 2240 ± 112 nM.
For `COc1ccc2cc([C@H](C)c3nnc(N)s3)ccc2c1` [Compound 3e, (S)-5-(1-(6-methoxynaphthalen-2-yl)ethyl)-1,3,4-thiadiazol-2-amine], the IC50 [1, 4] was 3810 ± 190 nM.
Work on `Nc1nnc(COCCN2CCN(C(c3ccccc3)c3ccc(Cl)cc3)CC2)s1` (stereo not shown) [Compound 3f, 5-((2-(4-((4-chlorophenyl)(phenyl)methyl)piperazin-1-yl)ethoxy)methyl)-1,3,4-thiadiazol-2-amine] yielded an IC50 [1, 4] of 17300 ± 863 nM.
Work on `Nc1nnc(-c2cn(C3CC3)c3cc(N4CCN(C(=O)c5cccc([N+](=O)[O-])c5)CC4)c(F)cc3c2=O)s1` [Compound 3g, 3-(5-amino-1,3,4-thiadiazol-2-yl)-1-cyclopropyl-6-fluoro-7-(4-(3-nitrobenzoyl)piperazin-1-yl)qui nolin-4(1H)-one] yielded an IC50 [1, 4] of 1180 ± 59.1 nM.
In the case of `COc1ccc(C(=O)N2CCN(c3cc4c(cc3F)c(=O)c(-c3nnc(N)s3)cn4C3CC3)CC2)cc1` [Compound 3h, 3-(5-amino-1,3,4-thiadiazol-2-yl)-1-cyclopropyl-6-fluoro-7-(4-(4-methoxybenzoyl)piperazin-1-yl)quinolin-4(1H)-one], the IC50 [1, 4] is reported as 1710 ± 86.5 nM.
Compound `Nc1nnc(-c2cn(C3CC3)c3cc(N4CCN(C(=O)c5ccc(Cl)cc5Cl)CC4)c(F)cc3c2=O)s1` [Compound 3i, 3-(5-amino-1,3,4-thiadiazol-2-yl)-1-cyclopropyl-7-(4-(2,4-dichlorobenzoyl)piperazin-1-yl)-6-fluoroquinolin-4(1H)-one] has an IC50 [1, 4] of 29200 ± 1460 nM.
